According to patent publication US20260048155A1, “BIOCOMPATIBLE PARAHYDROGEN HYPERPOLARIZED SOLUTIONS BY PRECIPITATION AND RE-DISSOLUTION” (North Carolina State University, priority 2022, published 2026):

How the values were obtained:
[1] = Precipitation without water addition: 13C polarization of residual dissolved pyruvate in organic phase; assay type: physicochemical; details: for P13C in precipitated sample, no water added / 13C polarization in precipitated sample, no water added: residual dissolved pyruvate in EtAc/CH3OH
Procedure: To investigate the impact of precipitate relaxation in variable magnetic fields during the dissolution process, the Re-D SABRE experiment was repeated, omitting the addition of water after precipitation (i.e., the decay of ^13C HP signal in the dissolved phase of the precipitated samples was measured). […] For (iii), P13C was still much lower compared to the sample that rested at the 1.4 T magnet (setup iv), i.e., P13C=0.08±0.02% and P13C=3.4±0.9%, respectively—this signal is entirely derived from the remaining dissolved pyruvate in solution (2.3±0.6 mM in the 500 μL sample of EtAc and CH3OH, FIG. 17) not from the precipitated micro-crystalline phase. […] This observation is important because it means the Re-D SABRE process can be successfully performed at storage fields as low as 0.3 T. The rapid ^13C T1 of HP [1-^13C]pyruvate in the EtAc fraction at Earth's field, estimated to be <1.3 s, may be caused by the high catalyst: substrate ratio in the EtAc.
Description of the magnets used in the precipitation and relaxation study: The precipitation and phase separation approach was investigated at 4 different magnetic fields: (i) Earth's field; (ii) 10 mT; (iii) 0.3 T; and (iv) 1.4 T. For (i), the samples were positioned in a plastic holder at a defined position in the laboratory at which a magnetic field of ≈40 μT was measured. For (ii), a modified setup of permanent magnets creating a 10 mT magnetic field over a volume of ≈20×10×10 cm^3 was employed. For (iii), a hollow cylindrical magnet (K&J Magnetics, Inc., P/N RY04Y0) was used with a length of 5.1 cm and an inner bore of approximately 6.4 mm diameter in which the NMR tube was positioned. For (iv), the NMR benchtop spectrometer was used, which approximately provides the constant 1.4 T field up to 10 cm above the magnet center.

[2] = Precipitation and syringe/cotton filtering of HP pyruvate at 10 mT; assay type: physicochemical; details: 4.5 mL EtAc, filter at 10 mT, 1 mL H2O, 90-100 s procedure, repeated three times
Procedure: As described above, filtering of non-hyperpolarized pyruvate from the precipitated solutions was tested using in-line syringe filters (FIGS. 9A-9C), and the obtained solutions of supernatant and dissolved microcrystals were analyzed with high resolution NMR. Cotton filters were also used as a performance metric for the syringe filters. Each sample was SABRE-SHEATH-polarized as described previously for three times to quantify the mean base-line hyperpolarization before precipitation (for this batch of samples, P13C=10±1% in CH3OH). Because a short lifetime of ^13C magnetization was expected at ultralow field, the precipitation procedure was performed at an elevated field of 10 mT (see setup described in section 5). At this field, proton and ^13C Zeeman levels are separated by >350 kHz, i.e., an order of magnitude greater than the dipolar spin-spin couplings present in the solid state. To this end, after the hyperpolarization procedure was completed, the sample was rapidly removed from the 0.30 μT field, depressurized, and filled into a 10-mL plastic syringe held at a 10 mT field mounted to a Luer-locked filter. After depressurization (˜10-15 s after hyperpolarization) 4.5 mL EtAc was added, the solution was stirred manually, and the filtration was started, taking a total of about 1 min following hyperpolarization. […]

[3] = 30 mM pyruvate, prior SABRE-SHEATH work (background); cited from earlier work

## CC(=O)[13C](=O)O [[1-^13C]pyruvate]
[1]; 0.3 T (iii)
  P13C in precipitated sample, no water added: 0.08±0.02%
[1]; 1.4 T (iv)
  P13C in precipitated sample, no water added: 3.4±0.9%
[1]; 10 mT (ii)
  13C polarization in precipitated sample, no water added: no measurable ^13C polarization was observed
[1]; Earth's field (i)
  13C polarization in precipitated sample, no water added: no measurable ^13C polarization was observed
[1]; dissolved phase in EtAc fraction
  P13C in (iii) 0.3 T lower than in (iv) 1.4 T: ≈ 40 times
[2]
  HP 13C signal after precipitation and filtering: no HP ^13C signal was observed
[3]
  P13C in the free state: 13%
